Laboratory results reported in patent publication US11845805B2, “Bispecific antibody against CD3 and CD20 in combination therapy for treating diffuse large B-cell lymphoma” (GENMAB A/S, priority 2020, dated 2023).
Read-outs that look alike come from different tables or passages of the source.

Tests used:
T cells = assay: T cell viability after 16 hours pre-incubation with CHOP components; type: cell-based
[1] = test system: primary DLBCL and follicular lymphoma patient biopsies; conditions: biopsies taken a certain amount of time after administration of an anti-CD20 antibody; cited from earlier work
[2] = test system: CD20-expressing Raji-luc tumor cells; conditions: even in the presence of an excess of IgG1-RTX-FEAR (rituximab variant with inert Fc domain); cited from earlier work
[3] = T cells pretreated 16 hours with the CHOP component

Compound | T cell viability (T cells; [3]) | further results
CC[C@]1(O)C[C@H]2CN(CCc3c([nH]c4ccccc34)[C@@](C(=O)OC)(c3cc4c(cc3OC)N(C=O)[C@H]3[C@@](O)(C(=O)OC)[C@H](OC(C)=O)[C@]5(CC)C=CCN6CC[C@]43[C@@H]65)C2)C1 [vincristine] | did not impact T cell viability | 
C[C@]12C=CC(=O)C=C1CC[C@@H]1[C@@H]2C(=O)C[C@@]2(C)[C@H]1CC[C@]2(O)C(=O)CO [prednisone, 17,21-dihydroxypregna-1,4-diene-3,11,20-trione] | did not impact T cell viability | 
O=P1(N(CCCl)CCCl)NCCCO1 (stereo not drawn) [cyclophosphamide, 2H-1,3,2-Oxazaphosphorin-2-amine, N,N-bis(2-chloroethyl)tetrahydro-, 2-oxide] |  | T cell viability (T cells): did not impact T cell viability
COc1cccc2c1C(=O)c1c(O)c3c(c(O)c1C2=O)C[C@@](O)(C(=O)CO)C[C@@H]3O[C@H]1C[C@H](N)[C@H](O)[C@H](C)O1 [doxorubicin] | reduction in T cell viability | 
epcoritamab: IgG1 bispecific CD3×CD20 antibody; heavy/light chain pairs SEQ ID NOs: 24/25 and 26/27; CAS 2134641-34-0 |  | T-cell-mediated cytotoxicity in patient biopsies [1]: induced T-cell-mediated cytotoxicity; tumor growth in the xenograft model [2]: effectively reduce tumor growth
